Laboratory results reported in patent US10294205B2, “Allenamide as an orthogonal handle for selective modification of cysteine in peptides and proteins” (Nanyang Technological University, priority 2014, dated 2019).
Entries after “also recorded” stand apart in the source; their conditions may differ. One block for each compound: values may come before it. Where no end group is shown, it is not given here. allenamide 1a = not defined here

How the values were obtained:
BSA = biological target: T1, BSA (Bos taurus, UniProt P02769); assay: Labelling BSA with 6-8, SDS-PAGE analysis; assay type: biochemical, bovine; details: 10 nmol label, 1 nmol BSA, Tris-HCl pH 7.4, 37° C., 30 min
T1 construct: purchased
Procedure: 0.1 μmol/mL solution of BSA in H2O (10 μL, 1 nmol), 1.0 μmol/mL solution of 6, 7 and 8 in H2O (10 μL each, 10 nmol) and 80 μL of Tris-HCl buffer (pH 7.4) were mixed in 1 mL eppendorf tubes and incubated at 37° C. for 30 min.

[1] = biological target: T2, BSA (Bovine Serum Albumin) (Bos taurus, UniProt P02769); assay: Modification (alkylation) of BSA with compound 1a, trypsin digestion and LC-MS/MS; assay type: biochemical; details: DTT-reduced BSA, 30 min at 37° C., pH 8.0
T2 construct: purchased
Procedure: 6.6 mg of BSA (0.1 μmol) was dissolved in 1 ml of ammonium carbonate buffer (pH 8.0). To this was added 2.3 mg solid DTT (15 μmol) and after pipette mixing resulting mixture was incubated over night at 37° C. 3.7 mg of 1a (21 μmol) dissolved in 1 ml of ammonium carbonate buffer (5% THF) was then added to it and incubated again for 30 min at 37° C. After due time, protein was purified through nano-separation filtration. The purified protein was subjected to trypsin digestion and LC-MS/MS using standard protocols (FIG. 13).

[2] = biological target: T3, bovine insulin (reduced chain A and chain B) (Bos taurus, UniProt P01317); assay: Modification of DTT-reduced bovine insulin using 1a; assay type: biochemical
T3 construct: purchased
Procedure: After promising results in simple peptides, similar modification of cysteine residue in more complicated peptide sequences was also examined. A more complex pair of peptides generated from the DTT treatment of bovine insulin was tested (FIG. 10).
10 equivalents of solid DTT was added to 2 ml of a 10 mM solution of bovine insulin in 50 mM ammonium carbonate buffer of pH 8. The mixture after pipette mixing was allowed to stand at 70° C. under nitrogen atmosphere for 10 minutes. LCMS was done after due time and cooling to room temperature to confirm complete reduction of disulfide bonds. […] Similarly the m/Z values corresponding to chain A were obtained as 779, 1169 and 2338 corresponding to +3, +2 and +1 charge on chain A (molecular weight 2337.97). To 1 ml of the reduced insulin mixture was added 25 equivalents of 1a dissolved in 500 μL of THF and reaction mixture was allowed to stand at room temperature for 30 min. after pipette mixing. […] Thus, the expected molecular weight of modified chain B was 3743.67 (3397.67+346) and that of chain A was 3029.97 (2337.97+692) and the observed m/z values for modified chain B were at 750, 937, 1249 and 1873 corresponding to +5, +4, +3 and +2 charge and for chain A were at 1011 and 1515 corresponding to +3 and +2 charge on the chain. The site selectivity was further confirmed by MS/MS (FIGS. 11 and 12, respectively).

[3] = test system: peptides CGKSRF (3), KSCGRF (4) and YDSQCFHRW (5); assay: Modification of peptides 3, 4 and 5 with allenamide 1a; assay type: biochemical
Procedure: 100 μL of the peptide solution (250 μM in ammonium carbonate buffer of pH 8.0) was mixed with an equal amount of the solution of 1a (2.5 mM in ammonium carbonate buffer containing 5% THF). After pipette mixing, reaction mixture was allowed to stand at room temperature for 10-20 minutes. […] Site selectivity was established by LC-MS/MS.
(§1) The irreversibility of the conjugation product was tested with peptide 5 and GSH (2). No reversion to starting material 5 was observed when the conjugation product of 5 and 1a was incubated with excess (100 equivalent) glutathione for overnight at 37° C. […] The irreversibility of specific cysteine labelling may thus enable the possibility for the protein modification in intracellular environment.

[4] = Reaction of allenamide 1a with cysteine methyl ester (free thiol and amino groups)
Procedure: […] Reaction mixture was stirred for 30 minutes after which TLC confirmed the complete consumption of 1a. THF was evaporated on rotary evaporator and product was extracted two times in dichloromethane (2.5 mL each). Solvent was evaporated and product was purified by column chromatography (5% MeOH in dichloromethane) to get 32.8 mg (76% yield) of white solid (modified cysteine).

[5] = Reaction of 1a with lysine, serine and methionine under similar conditions; details: similar conditions as for cysteine methyl ester
glutathione (GSH; 2) = assay: Modification of glutathione (2) using allenamide 1a; assay type: biochemical
Procedure: 6.5 mg glutathione (0.021 mmol) was dissolved in 0.5 mL ammonium carbonate buffer (pH 8.0) in a 4 mL glass vial. To this solution was added 7.3 mg of allenamide 1a (0.042 mmol; 2 eq.) in 0.5 mL THF and resulting solution was mixed well using a pipette. […] This mixture was centrifuged at 8000 rpm for 5 min. Liquid was carefully decanted and the solid precipitated was washed two times with THF. The precipitate after final washing was dried in vacuum to give 9.9 mg (97% yield) of white solid (modified glutathione).

peptide 5 (YDSQCFHRW) = assay: Modification of cysteine in peptide 5 using allenamides 1b-d; assay type: biochemical; details: peptide sequence YDSQCFHRW; as determined by LCMS
Procedure: After pipette mixing, reaction mixture was allowed to stand at room temperature for 10-20 minutes. […] Site selectivity was established by LC-MS/MS.

TEM1 β-Lactamase (Bla) = TEM1 β-Lactamase (Bla) (Escherichia coli, UniProt P62593); assay: Labelling TEM1 β-lactamase with 7, SDS-PAGE analysis; assay type: biochemical, bacterial; details: Tris-HCl pH 7.4, 37° C., 30 min
Procedure: For TEM1 β-Lactamase, 0.1 μmol/mL solution of β-Lactamase in H2O (10 μL, 1 nmol), 1.0 μmol/mL solution of 7 in H2O (10 μL, 10 nmol) and 80 μL of Tris-HCl buffer (pH 7.4) were mixed in a 1 mL eppendorf tube and incubated at 37° C. for 30 min. After due time, reaction mixture was subjected to SDS-PAGE analysis which confirmed no labelling. In second part of this experiment, 0.1 μmol/mL solution of β-Lactamase (1 mL) was heated with 1.0 μmol/mL solution of DTT (1 mL) at 80° C. for 10 min. After cooling down to room temperature, a 10 μL aliquot of this mixture was mixed with 10 μL of 7 (2.0 μmol/mL in H2O) and 80 μL of Tris-HCl buffer (pH 7.4) and incubated at 37° C. for 30 min.

[6] = Irreversibility of the conjugation products against excess thiol (LCMS); assay type: physicochemical; details: excess (100 equivalent) glutathione, overnight at 37° C.
Procedure: as §1

T3 sequence (P01317 25-54 limits assumed): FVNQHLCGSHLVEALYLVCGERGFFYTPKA
T3 sequence (P01317 85-105 limits assumed): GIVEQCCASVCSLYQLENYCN
Chain of TEM1 β-Lactamase (Bla) (P62593 24-286 limits assumed): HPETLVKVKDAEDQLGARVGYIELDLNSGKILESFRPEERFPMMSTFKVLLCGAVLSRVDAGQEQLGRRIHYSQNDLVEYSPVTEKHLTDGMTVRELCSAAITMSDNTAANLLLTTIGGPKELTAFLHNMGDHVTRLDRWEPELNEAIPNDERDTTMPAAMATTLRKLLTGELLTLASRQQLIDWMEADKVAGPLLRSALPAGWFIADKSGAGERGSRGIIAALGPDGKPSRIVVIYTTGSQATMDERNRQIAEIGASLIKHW
T1 sequence (P02769 25-607): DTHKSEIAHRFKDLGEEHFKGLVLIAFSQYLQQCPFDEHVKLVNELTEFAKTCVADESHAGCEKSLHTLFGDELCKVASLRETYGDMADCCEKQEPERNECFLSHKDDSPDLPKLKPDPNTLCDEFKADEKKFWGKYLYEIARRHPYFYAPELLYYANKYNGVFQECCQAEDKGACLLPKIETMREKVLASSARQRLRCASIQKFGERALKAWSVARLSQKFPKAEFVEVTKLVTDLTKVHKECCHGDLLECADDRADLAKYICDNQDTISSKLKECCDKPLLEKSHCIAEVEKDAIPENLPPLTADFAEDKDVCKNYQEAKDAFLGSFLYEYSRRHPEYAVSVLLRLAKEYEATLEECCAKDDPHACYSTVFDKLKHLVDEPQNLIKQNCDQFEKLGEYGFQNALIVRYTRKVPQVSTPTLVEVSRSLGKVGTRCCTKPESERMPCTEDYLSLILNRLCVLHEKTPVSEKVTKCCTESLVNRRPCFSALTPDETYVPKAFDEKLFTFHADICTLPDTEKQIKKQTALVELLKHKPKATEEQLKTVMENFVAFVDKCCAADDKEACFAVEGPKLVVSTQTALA
T2 sequence (P02769 25-607): as above

Compound: C=C=CC(=O)NCCNC(=S)Nc1ccc2c(c1)C(=O)OC21c2ccc(O)cc2Oc2cc(O)ccc21 (single isomer, unassigned) [Compound 6]
Labelling of BSA (SDS-PAGE) (BSA): labelling to have taken place successfully

Modification of reduced insulin chains (LCMS) ([2]; 25 equivalents of 1a, room temperature, 30 min): expected modification
Molecules of allenamide included in chain A ([2]; chain A, from molecular weight increment 692): four molecules
Molecules of allenamide included in chain B ([2]; chain B, from molecular weight increment 346): two molecules
Compound: C=C=CC(=O)NCc1ccccc1 [Allenamide 1a, N-benzylbuta-2,3-dienamide]
Modification of cysteine residues of BSA (LC-MS/MS of tryptic peptides) [1]: All cysteine residues in the detected peptides were found to be modified
Site of modification in peptides 3, 4 and 5 (LCMS and LC-MS/MS) [3]: selectively at cysteine
Conversion of peptides 3, 4 and 5 (LCMS) ([3]; 250 μM peptide, 2.5 mM 1a, pH 8.0, room temperature, 10-20 minutes): quantitative conversion
Reaction of other amino acid residues (histidine, lysine, tyrosine and other reactive side chains) with 1a ([3]; even after standing overnight): did not give any reaction
Reaction at the free amino group of cysteine methyl ester ([4]; even when 1a was used in excess): No reaction
Group of cysteine methyl ester involved in the reaction ([4]; gives product 1aa): Only the free thiol group
Product formation with lysine, serine and methionine [5]: no product was obtained
Conversion of glutathione (LCMS) (glutathione (GSH; 2); 2 eq. 1a, ammonium carbonate buffer pH 8.0/THF, after 15 min): complete conversion
Site of modification in glutathione (NMR, LC-MS/MS) (glutathione (GSH; 2); cysteine thiol versus amino groups): modification at the cysteine residue

Compound: C=C=CC(=O)NCC(=O)OCC [Allenamide 1b, ethyl 2-(buta-2,3-dienamido)acetate]
Conversion (peptide 5 (YDSQCFHRW)): Quantitative

Compound: C=C=CC(=O)NC1CCCCC1 [Allenamide 1c, N-cyclohexylbuta-2,3-dienamide]
Conversion (peptide 5 (YDSQCFHRW)): Quantitative

Compound: C=C=CC(=O)Nc1cccc2ccccc12 [Allenamide 1d, N-(naphthalene-1-yl)buta-2,3-dienamide]
Conversion (peptide 5 (YDSQCFHRW)): Quantitative

Compound: C=C=CC(=O)NCCNC(=O)CCCCC[N+]1=C(/C=C/C=C2/N(C)c3ccccc3C2(C)C)C(C)(C)c2ccccc21.[Cl-] [Compound 7]
Labelling of BSA (SDS-PAGE) (BSA): labelling to have taken place successfully
Labelling of β-Lactamase after DTT treatment (SDS-PAGE) (TEM1 β-Lactamase (Bla); DTT at 80° C. for 10 min before): successful labelling; also recorded: successful labeling was observed
Labelling of β-Lactamase without DTT treatment (SDS-PAGE) (TEM1 β-Lactamase (Bla); no free cysteine): no labelling; also recorded: no labeling was observed

Compound: conjugation product of 5 and 1a: peptide YDSQCFHRW (5) modified at cysteine with allenamide 1a (YDSQC(allenamide 1a)FHRW-OH; not fully specified; reading uncertain)
Reversion of conjugation product to starting material 5 [6]: No reversion
